Experimental data reported in US12454511B2, “6-methoxy-3,4-dihydro-1H-isoquinolin compounds” (Eli Lilly and Company, priority 2020, dated 2025).
Structures can show the parent of a compound that is named as a salt.

How the values were obtained:
[1] = molecular target: T1, human GIPR (Homo sapiens, UniProt P48546); assay: Human GIP Receptor Potentiator Assay (cAMP formation, HTRF, in presence of EC20 dose of GIP(1-42)); assay type: cell-based; conditions: HEK293 GIPR cell line intracellular cAMP response, with 25 pM GIP(1-42); for Emax: percent top of maximal response; for EC50: relative EC50, read-out: EC50 (nM) and SEM (n)
T1 construct: expressed in transfected cells; host or cells: HEK293 clonal cell line
T1 sequence (P48546 22-466): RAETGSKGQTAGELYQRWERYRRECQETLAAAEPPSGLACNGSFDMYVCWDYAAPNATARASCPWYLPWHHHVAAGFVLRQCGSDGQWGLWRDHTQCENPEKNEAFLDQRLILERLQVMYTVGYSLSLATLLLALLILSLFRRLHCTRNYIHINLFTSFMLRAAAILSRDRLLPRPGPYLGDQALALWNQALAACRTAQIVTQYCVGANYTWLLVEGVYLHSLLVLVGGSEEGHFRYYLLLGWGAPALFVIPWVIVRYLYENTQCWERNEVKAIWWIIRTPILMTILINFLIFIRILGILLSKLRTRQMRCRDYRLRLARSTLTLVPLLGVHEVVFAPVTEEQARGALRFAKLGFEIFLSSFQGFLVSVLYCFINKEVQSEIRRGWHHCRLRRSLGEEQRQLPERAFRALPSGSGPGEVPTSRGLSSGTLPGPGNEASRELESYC
Procedure: Human GIP Receptor Potentiator Assay
GIP Receptor (GIPR) functional activity is determined using cAMP formation in an HEK293 clonal cell line expressing human GIPR (NCBI accession number NP_000155). […] The hGIPR receptor expressing cells are treated with 25 pM of GIP(1-42) (Labcyte Echo direct dilution) and a dose response of test compound (10 point concentration-response curve in DMSO, 3-fold Labcyte Echo direct dilution, 384 well plate Corning Cat #3570) in DMEM (Gibco Cat #31053) supplemented with 1× GlutaMAX™ (Gibco Cat #35050), 0.1% bovine casein (Sigma C4765-10ML), 250 μM IBMX (3-Isobutyl-1-methylxanthine, Acros Cat #228420010) and 20 mM HEPES (Gibco Cat #15630) in a 20 μL assay volume (final DMSO concentration is 1.0%). After a 30 min incubation at 37° C., the resulting increase in intracellular cAMP is quantitatively determined using the CisBio cAMP Dynamic 2 HTRF Assay Kit (62AM4PEJ). Briefly, cAMP levels within the cell are detected by adding the cAMP-d2 conjugate in cell lysis buffer (10 μL) followed by the antibody anti-cAMP-Eu^3+-Cryptate, also in cell lysis buffer (10 μL). The resulting competitive assay is incubated for at least 60 min at room temperature, then detected using a PerkinElmer Envision® instrument with excitation at 320 nm and emission at 665 nm and 620 nm. Envision units (emission at 665 nm/620 nm*10,000) are inversely proportional to the amount of cAMP present and are converted to nM cAMP per well using a cAMP standard curve. The amount of cAMP generated (nM) in each well is converted to a percent of the maximal response observed. A relative EC50 value and percent top (Emax) are derived by non-linear regression analysis using the percent maximal response vs. the concentration of compound added, fitted to a four-parameter logistic equation. The EC50 and Emax data when the compounds of Examples 1 and 3 are tested in the cAMP assay described above are shown in Table 1.

[2] = molecular target: T2, human GLP-1R (Homo sapiens, UniProt P43220); assay: Human GLP-1 Receptor Potentiator Assay (cAMP formation, HTRF, in presence of EC20 dose of oxyntomodulin); assay type: cell-based; conditions: HEK293 GLP-1R cell line intracellular cAMP response, with 5 nM oxyntomodulin
T2 construct: expressed in transfected cells; host or cells: HEK293 clonal cell line
Procedure: Human GLP-1 Receptor Potentiator Assay
GLP-1 Receptor (GLP-1R) functional activity is determined using cAMP formation in an HEK293 clonal cell line expressing human GLP-1R (NCBI accession number NP_002053). […] After 60 min incubation at room temperature, the resulting increase in intracellular cAMP is quantitatively determined using a custom CisBio cAMP Hybrid HTRF Assay Kit (60MISZZZ). Briefly, cAMP levels within the cell are detected by adding the Dynamic 2 cAMP-d2 conjugate in cell lysis buffer (10 μL) followed by the HiRange antibody anti-cAMP-Eu^3+-Cryptate, also in cell lysis buffer ([…]). The resulting competitive assay is incubated for at least 60 min at RT, then detected using a PerkinElmer Envision® instrument with excitation at 320 nm and emission at 665 nm and 620 nm. […]

T2 sequence (P43220 24-463): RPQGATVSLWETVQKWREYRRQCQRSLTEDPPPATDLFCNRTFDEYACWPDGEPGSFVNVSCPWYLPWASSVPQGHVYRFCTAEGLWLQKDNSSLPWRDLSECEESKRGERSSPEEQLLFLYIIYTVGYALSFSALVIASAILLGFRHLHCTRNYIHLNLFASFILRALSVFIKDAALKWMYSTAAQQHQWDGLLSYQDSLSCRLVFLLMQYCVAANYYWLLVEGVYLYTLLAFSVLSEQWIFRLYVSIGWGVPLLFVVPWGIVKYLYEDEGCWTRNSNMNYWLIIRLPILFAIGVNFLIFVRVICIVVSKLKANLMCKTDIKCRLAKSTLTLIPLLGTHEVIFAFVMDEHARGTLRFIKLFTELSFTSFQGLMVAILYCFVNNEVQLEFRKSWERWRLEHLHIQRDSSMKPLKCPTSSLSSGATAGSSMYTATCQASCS

| Emax [1] [%] | EC50 [1] [nM] | Emax ([2]; percent top of maximal response) [%] | EC50 ([2]; relative EC50, read-out: EC50 (nM) and SEM (n)) [nM] | Structure (SMILES) |
| --- | --- | --- | --- | --- |
| 91 ± 8 | 37.5 |  |  | COc1ccc2c(c1-c1cc(C)c(O)c(F)c1)CCN(C(C)c1ccc(C(C)C)cc1)[C@@H]2C (single isomer, unassigned) [Example 3, hydrochloride] |
|  |  | 181 ± 35 | 15.7 | COCC1Cc2c(ccc(OC)c2-c2ccc(O)c(C)c2)CN1Cc1ccc(C(C)C)cc1O (single isomer, unassigned) [Example 2, 4-[2-[(2-Hydroxy-4-isopropyl-phenyl)methyl]-6-methoxy-3-(methoxymethyl)-3,4-dihydro-1H-isoquinolin-5-yl]-2-methyl-phenol; hydrochloride] |
| 101 ± 7 | 11.9 |  |  | COc1ccc2c(c1-c1cc(F)c(O)c(NCC(C)C)c1)CCN(C(C)c1ccc(C(C)C)cc1)[C@@H]2C (single isomer, unassigned) [Example 1, dihydrochloride] |
